Reference: ChEMBL document CHEMBL4680162, “Synthesis and pharmacological evaluation of chlorin derivatives for photodynamic therapy of cholangiocarcinoma” (Eur J Med Chem, 2020)
Activity calls are given as the source filed them. The rule behind the calls is not given here.

Key:
[1] = Induction of apoptosis in human QBC939 cells assessed as early apoptotic cells at 2 uM in presence of 2J/cm2 light irradiation measured after 24 hrs by annexin V-FITC and propidium iodide staining based flow cytometric analysis (reference value: 0.01 %); assay type: functional
[2] = Induction of apoptosis in human QBC939 cells assessed as necrotic cells at 2 uM in presence of 2J/cm2 light irradiation measured after 2 hrs by annexin V-FITC and propidium iodide staining based flow cytometric analysis (reference value: 0.02 %); assay type: functional
[3] = Absorption property of the compound in DMSO assessed as Q band maximum absorption wavelength by UV-visible spectrophotometric method; assay type: physicochemical
QBC939 = assay: Photodynamic antitumor activity against human QBC939 cells xenografted in BALB/c nude mouse assessed as increase in tumor tissue damage at 1 mg/kg, iv followed by laser light irradiation at 120 J/cm2 measured after 1 day of light irradiation by H and E staining based histological analysis; assay type: functional, organism-based
[4] = Phototoxicity in BALB/c nude mouse xenografted with QBC939 cells assessed as change in heart at 1 mg/kg, iv followed by laser light irradiation at 120 J/cm2 measured after 1 day of light irradiation by H and E staining based histological analysis; assay type: organism-based; settings: in vivo, 24 h
[5] = Drug localization in nucleus of human QBC939 cells at 4 uM incubated for 4 hrs in dark by Hoechst 33342 based confocal microscopic method; assay type: ADME, subcellular; settings: qbc939, 4 h
[6] = Phototoxicity in ICR mouse assessed as tail weight at 1 mg/kg, iv followed by 10 mW/cm2 light irradiation for 10 mins at 1 day after drug challenge and measured after 1 day of light irradiation by H and E staining based microscopic analysis (reference value: 115.6 +/- 5.6 mg); assay type: organism-based; settings: in vivo, 48 h, time 2 day
[7] = Drug localization in mitochondria of human QBC939 cells at 4 uM incubated for 4 hrs in dark by mito-tracker green based confocal microscopic method; assay type: ADME; settings: qbc939, 4 h
[8] = Phototoxicity against human QBC939 cells assessed as reduction in cell viability irradiated with 1 J/cm2 of 650 nanometer laser light preincubated for 24 hrs in dark and measured after 24 hrs by MTT assay; assay type: functional, cell-based; settings: QBC939, light or radiation study
[9] = Emission property of compound in poly-oxyethylene castor oil and PBS assessed as Q band emission wavelength by […]; assay type: physicochemical; settings: buffer
[10] = Phototoxicity in BALB/c nude mouse xenografted with QBC939 cells assessed as change in kidney at 1 mg/kg, iv followed by laser light irradiation at 120 J/cm2 measured after 1 day of light irradiation by H and E staining based histological analysis; assay type: organism-based; settings: in vivo, 24 h
[11] = Phototoxicity in ICR mouse assessed as pathological changes 1 mg/kg, iv in presence of 10 mW/cm2 light irradiation for 10 mins at 1 day after drug challenge and measured after 1 day of light irradiation by H and E staining based microscopic analysis; assay type: organism-based; settings: in vivo, 48 h, time 2 day
[12] = Phototoxicity against human QBC939 cells assessed as reduction in cell viability irradiated with 4 J/cm2 of 650 nanometer laser light preincubated for 24 hrs in dark and measured after 24 hrs by MTT assay; assay type: functional, cell-based; settings: QBC939, light or radiation study
[13] = Emission property of compound in DMF assessed as Q band emission wavelength by […]; assay type: physicochemical
[14] = Induction of apoptosis in human QBC939 cells assessed as early apoptotic cells at 2 uM in presence of 2J/cm2 light irradiation measured after 2 hrs by annexin V-FITC and propidium iodide staining based flow cytometric analysis (reference value: 0.01 %); assay type: functional
[15] = Absorption property of the compound in DMF assessed as Q band maximum absorption wavelength by UV-visible spectrophotometric method; assay type: physicochemical

Activity [3]: 650 nm
Drug uptake [5]: Not Active
Drug uptake [7]: Active
Activity [9]: 654 nm
Activity [13]: 656 nm
Activity [15]: 656 nm
Structure (SMILES): COC(=O)C1(C(=O)O)C2c3nc(c(-c4ccccc4)c4ccc([nH]4)c(-c4ccccc4)c4nc(c(-c5ccccc5)c5ccc([nH]5)c3-c3ccccc3)C=C4)C21 (stereo unspecified)
Activity [1]: 20.99%
Activity [2]: 10.73%
Activity (QBC939): Active
Activity [4]: Non-Toxic
Activity [6]: 116.5 mg
IC50 [8]: 1910 nM
Activity [10]: Non-Toxic
Activity [11]: Non-Toxic
IC50 [12]: 780 nM
Activity [14]: 23.2%
